# Data taken from paper PMC6154694, “Absorption, Metabolic Stability, and Pharmacokinetics of Ginger Phytochemicals” (Molecules : A Journal of Synthetic Chemistry and Natural …, 2017).
# Legend:
# [1] = pH dependent kinetic solubility in hydrochloride, citrate and phosphate buffers; format: physicochemical; conditions: 23 °C, kinetic from dmso stock, tested 10 to 100 µM, n = 2
# Procedure: Calibration standards were prepared by spiking 5 μL of DMSO stock solutions into 995 μL acetonitrile/buffer (1:1) mixture. Following centrifugation (10,000 rpm, 10 min, 25 °C) the reaction samples were diluted 1:1 with acetonitrile.
# [2] = Liver microsomal stability, mouse; format: in vitro ADME, CD1 mouse; conditions: protein 0.5 mg/mL
# Procedure: Pooled liver microsomes from CD1 mouse, IGS Sprague-Dawley rat, Beagle dog, and mixed gender human were used for assays. Incubations (1 mL) consisted of liver microsomes (0.5 mg/mL), NADPH (1 mM) and 100 mM sodium phosphate buffer (pH 7.4). Following pre-incubation (10 min, 37 °C), reactions were initiated by spiking ACN/DMSO (80:20) stock solutions of GE phenolics (5 μL, 10 μM). Samples (100 μL) were withdrawn at 0, 5, 10, 15, 20 and 30 min and quenched with 200 μL acetonitrile containing internal standard. Concomitant NADPH-free control incubations were prepared similarly.
# [3] = Mouse pharmacokinetic study of oral GE with and without ketoconazole, plasma with and without β-glucuronidase treatment; format: in vivo, male mice (C57BL6J); conditions: for Concentration Ratio (Total/Free) of GE Phenolics: GE administered group; for Concentration Ratio (Total/Free) of GE Phenolics / concentration at 0 h / concentration at 0.087 h / concentration at 0.167 h / concentration at 0.25 h / concentration at 0.5 h / concentration at 1 h / concentration at 2 h / concentration at 3 h / concentration at 4 h / concentration at 6 h / concentration at 8 h / concentration at 12 h: mouse plasma; for AUC(0-t) / Cmax / Tmax / concentration at 0 h / concentration at 0.087 h / concentration at 0.167 h / concentration at 0.25 h / concentration at 0.5 h / concentration at 1 h / concentration at 2 h / concentration at 3 h / concentration at 4 h / concentration at 6 h / concentration at 8 h / concentration at 12 h: male, C57BL6J; for AUC(0-t) / Cmax / Tmax: mouse, plasma, po, 250 mg/kg
# Procedure: A solution formulation of GE was prepared by using 5% ethanol, 5% Tween 80, 40% polyethylene glycol, and 50% corn oil. The dose volume was 10 mL/kg and the dose administered was 250 mg/kg GE.
# Pharmacokinetic study in male mice (C57BL6J, Harlan Laboratories, Indianapolis, IN, USA) was run with 36 animals in each group at a GE dose of 250 mg/kg with a dose volume of 10 mL/kg. One group was given GE alone and in the second group GE was co-administered with KTZ (50 mg/kg). A terminal sampling design was used to collect blood samples at 0 (pre-dose), 0.08, 0.16, 0.25, 0.5, 1, 2, 3, 4, 6, 8, and 12 h. At each time, 1 mL of blood was collected in ethylenediaminetetraacetic acid di-potassium salt (K2EDTA) tubes (BD Biosciences, Franklin Lakes, NJ, USA). Plasma was separated by centrifugation of samples at 4000 rpm for 10 min and stored below −60 °C till bioanalysis. All experiments were performed with approval from the Institutional Animal Care and Use Committee (IACUC, approval code: A14031). All animals were acclimatized for five days before dosing in the experimental area. Food and water was provided ad libitum throughout the study period. Animals were marked and housed (three per cage, n = 36 per group) in polypropylene cages and maintained in controlled environmental conditions with 12 h light and dark cycles. The temperature and humidity of the room was maintained between 22 ± 3 °C and 30% to 50%, respectively, and approximately 10–12 fresh air change cycles per hour.
# To confirm the presence of GE glucuronide conjugates, plasma (100 μL) was treated with βgd (20 μL, 500 units) and incubated at 37 °C for 1 h. Each sample was analyzed twice with and without β-gd treatment. Samples without gde treatment were diluted with 20 μL of buffer. Total (conjugated + free) and free ginger phenolics data were reported following bioanalysis.
# All in vitro and in vivo samples were processed by protein precipitation method. An aliquot (100 μL) of the sample was spiked with 200 μL of acetonitrile containing dihydrocapsaicin as internal standard (IS) and vortex mixed for 3 min. The tubes were centrifuged at 12,000 rpm for 10 min and an aliquot of supernatant was transferred into autosampler vials for analysis. The stock solutions of 6G, 8G, 10G, and 6S were prepared in ACN/water (70:30) at 1 mg/mL. A calibration curve (CC) range of 2–2000 ng/mL was employed for the quantification of analytes and IS concentration was 150 ng/mL for each analysis. The CC consisted of blank, blank with IS and seven non-zero calibration standards. The calibration standards were within ±15% of the nominal concentration and lower limit of quantification was within ±20% of nominal. All samples were analyzed using liquid chromatography tandem mass spectrometry (LC-MS/MS) method (Agilent 6410 series, Santa Clara, CA, USA). A positive ionization mode with multiple reaction monitoring (MRM, m/z Q1/Q3) of 6G (m/z 277.1/177.1, retention time (RT) 2.0 min), 8G (m/z 305.1/177.1, RT 4.0 min), 10G (m/z 333.1/177.1, RT 7.7 min), 6S (m/z 277.1/137.1, RT 5.1 min), and IS (m/z 308.2/137.1, RT 3.4 min) was employed. The ion spray voltage was set at 3500 V, ionization temperature was set to 300 °C and drying gas flow rate was 10 L/min. Data acquisition and quantitation were performed using Mass Hunter software (Agilent Technologies, Wilmington, DE, USA). Separation was achieved using HP1100 series LC (Agilent Technologies) with an Agilent Zorbax reversed-phase (SB-C18, 2.1 × 50 mm, 5.0 μm) column. A gradient method was employed to separate the individual GE phenolics using mobile phase A (0.1% formic acid in water) and mobile phase B (Acetonitrile). The gradient elution method with 50% B at 0 min, 90% B at 5 min, held for 2.1 min, back to 50% B at 7.1 min with a flow rate of 0.2 mL/min. An injection volume of 2 μL was used for analysis. […]
# [4] = 250 mg/kg GE + 50 mg/kg KTZ oral, +KTZ −βgd
compound,measurement,setting,value
"CCCCCCCCCC(O)CC(=O)CCc1ccc(O)c(OC)c1 (centres unmarked) [10G, 10-gingerol]",solubility at 2 h,"[1]; 100 mM citrate buffer, aqueous buffer, pH 4, citrate buffer",< 10 µM
same,solubility at 2 h,"[1]; 100 mM phosphate buffer, aqueous buffer, pH 7.4, phosphate buffer",< 10 µM
same,solubility at 2 h,"[1]; simulated gastric fluid, pH 2, hydrochloride buffer",< 10 µM
same,"remaining at 0.5 h, 10 µM","[2]; CD1, pooled liver microsomes, pH 7.4, substrate 10 µM, n = 2, read-out: % Remaining at 30 min",10%
same,Intrinsic Clearance,"[2]; mouse liver microsomes, substrate 10 µM, 45 mg protein/g liver",8.0 mL/min/g Liver
same,AUClast Ratio,"[3]; +KTZ +βgd, reference GE group co-administered with KTZ untreated with βgd",11
same,AUClast Ratio,"[3]; +KTZ +βgd, reference GE group untreated with βgd",32
same,AUClast Ratio,"[3]; +KTZ −βgd, reference GE group untreated with βgd",3
same,Concentration Ratio (Total/Free) of GE Phenolics,[3]; 0 h,0
same,Concentration Ratio (Total/Free) of GE Phenolics,[3]; 0.087 h,5
same,Concentration Ratio (Total/Free) of GE Phenolics,[3]; 0.167 h,11
same,Concentration Ratio (Total/Free) of GE Phenolics,[3]; 0.25 h,24
same,Concentration Ratio (Total/Free) of GE Phenolics,[3]; 0.5 h,13
same,Concentration Ratio (Total/Free) of GE Phenolics,[3]; 1 h,8
same,Concentration Ratio (Total/Free) of GE Phenolics,[3]; 2 h,19
same,Concentration Ratio (Total/Free) of GE Phenolics,[3]; 3 h,9
same,Concentration Ratio (Total/Free) of GE Phenolics,[3]; 4 h,9
same,Concentration Ratio (Total/Free) of GE Phenolics,[3]; 6 h,15
same,Concentration Ratio (Total/Free) of GE Phenolics,[3]; 8 h,0
same,Concentration Ratio (Total/Free) of GE Phenolics,[3]; 12 h,0
same,AUC(0-t),"[3]; 250 mg/kg GE oral, −βgd",61.8 ng·h/mL
same,Cmax,"[3]; 250 mg/kg GE oral, −βgd",56 ng/mL
same,Tmax,"[3]; 250 mg/kg GE oral, −βgd",30 min
same,AUC(0-t),[3]; [4],174 ng·h/mL
same,Cmax,[3]; [4],79 ng/mL
same,Tmax,[3]; [4],30 min
same,concentration at 0 h,"[3]; 250 mg/kg GE oral, 0 h, −βgd",0 ng/mL
same,concentration at 0.087 h,"[3]; 250 mg/kg GE oral, 0.087 h, −βgd",43.1 ± 35.3 ng/mL
same,concentration at 0.167 h,"[3]; 250 mg/kg GE oral, 0.167 h, −βgd",20.7 ± 6.15 ng/mL
same,concentration at 0.25 h,"[3]; 250 mg/kg GE oral, 0.25 h, −βgd",25.9 ± 4.43 ng/mL
same,concentration at 0.5 h,"[3]; 250 mg/kg GE oral, 0.5 h, −βgd",56 ± 31.6 ng/mL
same,concentration at 1 h,"[3]; 250 mg/kg GE oral, 1 h, −βgd",2.21 ± 0.62 ng/mL
same,concentration at 2 h,"[3]; 250 mg/kg GE oral, 2 h, −βgd",4.08 ± 1.61 ng/mL
same,concentration at 3 h,"[3]; 250 mg/kg GE oral, 3 h, −βgd",5.25 ± 1.06 ng/mL
same,concentration at 4 h,"[3]; 250 mg/kg GE oral, 4 h, −βgd",3.06 ± 1.19 ng/mL
same,concentration at 6 h,"[3]; 250 mg/kg GE oral, 6 h, −βgd",2.43 ± 1.16 ng/mL
same,concentration at 8 h,"[3]; 250 mg/kg GE oral, 8 h, −βgd",5.04 ± 5.89 ng/mL
same,concentration at 12 h,"[3]; 250 mg/kg GE oral, 12 h, −βgd",0.62 ± 0.72 ng/mL
same,concentration at 0 h,"[3]; 250 mg/kg GE with 50 mg/kg ketoconazole oral, 0 h, −βgd",0 ng/mL
same,concentration at 0.087 h,"[3]; 250 mg/kg GE with 50 mg/kg ketoconazole oral, 0.087 h, −βgd",0 ng/mL
same,concentration at 0.167 h,"[3]; 250 mg/kg GE with 50 mg/kg ketoconazole oral, 0.167 h, −βgd",5.66 ± 5.12 ng/mL
same,concentration at 0.25 h,"[3]; 250 mg/kg GE with 50 mg/kg ketoconazole oral, 0.25 h, −βgd",20.5 ± 21.6 ng/mL
same,concentration at 0.5 h,"[3]; 250 mg/kg GE with 50 mg/kg ketoconazole oral, 0.5 h, −βgd",14000 ng/mL
same,concentration at 1 h,"[3]; 250 mg/kg GE with 50 mg/kg ketoconazole oral, 1 h, −βgd",54.5 ± 58.3 ng/mL
same,concentration at 2 h,"[3]; 250 mg/kg GE with 50 mg/kg ketoconazole oral, 2 h, −βgd",27900 ng/mL
same,concentration at 3 h,"[3]; 250 mg/kg GE with 50 mg/kg ketoconazole oral, 3 h, −βgd",45.8 ± 48.2 ng/mL
same,concentration at 4 h,"[3]; 250 mg/kg GE with 50 mg/kg ketoconazole oral, 4 h, −βgd",6.52 ± 1.14 ng/mL
same,concentration at 6 h,"[3]; 250 mg/kg GE with 50 mg/kg ketoconazole oral, 6 h, −βgd",8.07 ± 5.96 ng/mL
same,concentration at 8 h,"[3]; 250 mg/kg GE with 50 mg/kg ketoconazole oral, 8 h, −βgd",3.71 ± 2.46 ng/mL
same,concentration at 12 h,"[3]; 250 mg/kg GE with 50 mg/kg ketoconazole oral, 12 h, −βgd",2.61 ± 1.41 ng/mL
